In brackets after ≈: the same amount, converted by molar mass. Like-named read-outs stand apart in the source and are kept apart here.
Experiments:
[1] = biological target: human (hACC2) (Homo sapiens, UniProt O00763); experiment: In vitro ACC inhibition assay (ADP-Glo), hACC2; assay type: biochemical; details: Table 2b, additional results, 5 nM ACC2, 20 μM ATP, 20 μM acetyl-CoA
Procedure: The detailed procedure is as follows. […] 10 μL ADP glo reagent was added. […] 20 μL kinase detection reagent was added.

[2] = test system: C. albicans; experiment: Antifungal Activity Assay (broth microtiter MIC), C. albicans; assay type: cell-based, Candida albicans; details: Candida albicans, ATCC90028, 48 h
Procedure, shortened: (§1)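 Broth microdilution per CLSI M27-A3 in RPMI 1640+MOPS, inoculum 2.5×10^3 CFU/mL final from overnight Sabouraud dextrose agar cultures at 35° C. Compounds diluted from DMSO stock to 128 μg/mL in water. MIC read visually versus growth control at 48 h.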

[3] = test system: C. krusei; experiment: Antifungal Activity Assay (broth microtiter MIC), C. krusei; assay type: cell-based, Candida krusei; details: Pichia kudriavzevii, ATCC6258, 48 h
Procedure, shortened: as §1

[4] = test system: C. parapsilosis; experiment: Antifungal Activity Assay (broth microtiter MIC), C. parapsilosis; assay type: cell-based, Candida parapsilosis; details: Lodderomyces parapsilosis, ATCC22019, 48 h
Procedure, shortened: as §1

[5] = test system: Botrtyis cinerea (Bc); experiment: Growth inhibition assay of fungal pathogens, Bc; assay type: cell-based; details: 48 h, growth inhibition at 48 hours vs 2% DMSO control
Procedure, shortened: (§2)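 Inhibition percentages reflect 48 h OD600 and visual scores relative to a 2% DMSO control. Test concentrations were 50, 10, 2 ppm or 2, 0.4, 0.08 ppm final, applied to spores in 17% V8 medium.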

[6] = test system: Collectotrichum graminicola (Cg); experiment: Growth inhibition assay of fungal pathogens, Cg; assay type: cell-based; details: 48 h, growth inhibition at 48 hours vs 2% DMSO control
Procedure, shortened: as §2

[7] = test system: Diplodia maydis (Dm); experiment: Growth inhibition assay of fungal pathogens, Dm; assay type: cell-based; details: Stenocarpella maydis, 48 h, growth inhibition at 48 hours vs 2% DMSO control
Procedure, shortened: as §2

[8] = test system: Fusarium moniliforme (Fm); experiment: Growth inhibition assay of fungal pathogens, Fm; assay type: cell-based; details: Fusarium verticillioides, 48 h, read-out: Concentration at 90% Inhibition Fm
Procedure, shortened: as §2

[9] = test system: Fusarium virguliforme (Fv); experiment: Growth inhibition assay of fungal pathogens, Fv; assay type: cell-based; details: 48 h
Procedure, shortened: as §2

[10] = test system: Phytophthora capsici (Pc); experiment: Growth inhibition assay of fungal pathogens, Pc; assay type: cell-based; details: 48 h
Procedure, shortened: as §2

[11] = test system: Rhizoctonia solani (Rs); experiment: Growth inhibition assay of fungal pathogens, Rs; assay type: cell-based; details: 48 h
[12] = test system: Septoria tritici (St); experiment: Growth inhibition assay of fungal pathogens, St; assay type: cell-based; details: Zymoseptoria tritici, 48 h, growth inhibition at 48 hours vs 2% DMSO control
Procedure, shortened: as §2

[13] = biological target: fungal (fACC2) (UniProt Q00955); details: read-out: fACC2 (in vitro ACC2 Inhibition Assay, IC50); Table 2b, additional results; ADP-Glo, 5 nM ACC2, 20 μM ATP, 20 μM acetyl-CoA
[14] = Table 3b (additional results), ATCC 90028, 3 replicates, MIC recorded at 48 h, read-out: MIC, C. albicans ATCC 90028
[15] = Table 3b (additional results), ATCC 6258, 3 replicates, MIC recorded at 48 h, read-out: MIC, C. krusei ATCC 6258
[16] = Table 3b (additional results), ATCC 22019, 3 replicates, MIC recorded at 48 h, read-out: MIC, C. parapsilosis ATCC 22019
[17] = Botrtyis cinerea, read-out: Concentration at 90% Inhibition Bc
[18] = Collectotrichum graminicola, read-out: Concentration at 90% Inhibition Cg
[19] = Diplodia maydis, read-out: Concentration at 90% Inhibition Dm
[20] = Fusarium moniliforme, growth inhibition at 48 hours vs 2% DMSO control
[21] = growth inhibition at 48 hours vs 2% DMSO control, read-out: Concentration at 90% Inhibition Fv
[22] = growth inhibition at 48 hours vs 2% DMSO control, read-out: Concentration at 90% Inhibition Pc
[23] = mycelial plugs, growth inhibition at 48 hours vs 2% DMSO control, read-out: Concentration at 90% Inhibition Rs
[24] = Septoria tritici, read-out: Concentration at 90% Inhibition St
[25] = read-out: MIC, C. albicans ATCC 90028, Table 3b (additional results), 3 replicates, MIC recorded at 48 h
[26] = read-out: MIC, C. krusei ATCC 6258, Table 3b (additional results), 3 replicates, MIC recorded at 48 h
[27] = read-out: MIC, C. parapsilosis ATCC 22019, Table 3b (additional results), 3 replicates, MIC recorded at 48 h
[28] = read-out: Concentration at 90% Inhibition Bc, Botrtyis cinerea
[29] = read-out: Concentration at 90% Inhibition Cg, Collectotrichum graminicola
[30] = read-out: Concentration at 90% Inhibition Dm, Diplodia maydis
[31] = read-out: Concentration at 90% Inhibition Fv, Fusarium virguliforme, growth inhibition at 48 hours vs 2% DMSO control
[32] = read-out: Concentration at 90% Inhibition Pc, Phytophthora capsici, growth inhibition at 48 hours vs 2% DMSO control
[33] = read-out: Concentration at 90% Inhibition Rs, Rhizoctonia solani, mycelial plugs, growth inhibition at 48 hours vs 2% DMSO control
[34] = read-out: Concentration at 90% Inhibition St, Septoria tritici

Chain of fungal (fACC2) (Q00955 whole entry): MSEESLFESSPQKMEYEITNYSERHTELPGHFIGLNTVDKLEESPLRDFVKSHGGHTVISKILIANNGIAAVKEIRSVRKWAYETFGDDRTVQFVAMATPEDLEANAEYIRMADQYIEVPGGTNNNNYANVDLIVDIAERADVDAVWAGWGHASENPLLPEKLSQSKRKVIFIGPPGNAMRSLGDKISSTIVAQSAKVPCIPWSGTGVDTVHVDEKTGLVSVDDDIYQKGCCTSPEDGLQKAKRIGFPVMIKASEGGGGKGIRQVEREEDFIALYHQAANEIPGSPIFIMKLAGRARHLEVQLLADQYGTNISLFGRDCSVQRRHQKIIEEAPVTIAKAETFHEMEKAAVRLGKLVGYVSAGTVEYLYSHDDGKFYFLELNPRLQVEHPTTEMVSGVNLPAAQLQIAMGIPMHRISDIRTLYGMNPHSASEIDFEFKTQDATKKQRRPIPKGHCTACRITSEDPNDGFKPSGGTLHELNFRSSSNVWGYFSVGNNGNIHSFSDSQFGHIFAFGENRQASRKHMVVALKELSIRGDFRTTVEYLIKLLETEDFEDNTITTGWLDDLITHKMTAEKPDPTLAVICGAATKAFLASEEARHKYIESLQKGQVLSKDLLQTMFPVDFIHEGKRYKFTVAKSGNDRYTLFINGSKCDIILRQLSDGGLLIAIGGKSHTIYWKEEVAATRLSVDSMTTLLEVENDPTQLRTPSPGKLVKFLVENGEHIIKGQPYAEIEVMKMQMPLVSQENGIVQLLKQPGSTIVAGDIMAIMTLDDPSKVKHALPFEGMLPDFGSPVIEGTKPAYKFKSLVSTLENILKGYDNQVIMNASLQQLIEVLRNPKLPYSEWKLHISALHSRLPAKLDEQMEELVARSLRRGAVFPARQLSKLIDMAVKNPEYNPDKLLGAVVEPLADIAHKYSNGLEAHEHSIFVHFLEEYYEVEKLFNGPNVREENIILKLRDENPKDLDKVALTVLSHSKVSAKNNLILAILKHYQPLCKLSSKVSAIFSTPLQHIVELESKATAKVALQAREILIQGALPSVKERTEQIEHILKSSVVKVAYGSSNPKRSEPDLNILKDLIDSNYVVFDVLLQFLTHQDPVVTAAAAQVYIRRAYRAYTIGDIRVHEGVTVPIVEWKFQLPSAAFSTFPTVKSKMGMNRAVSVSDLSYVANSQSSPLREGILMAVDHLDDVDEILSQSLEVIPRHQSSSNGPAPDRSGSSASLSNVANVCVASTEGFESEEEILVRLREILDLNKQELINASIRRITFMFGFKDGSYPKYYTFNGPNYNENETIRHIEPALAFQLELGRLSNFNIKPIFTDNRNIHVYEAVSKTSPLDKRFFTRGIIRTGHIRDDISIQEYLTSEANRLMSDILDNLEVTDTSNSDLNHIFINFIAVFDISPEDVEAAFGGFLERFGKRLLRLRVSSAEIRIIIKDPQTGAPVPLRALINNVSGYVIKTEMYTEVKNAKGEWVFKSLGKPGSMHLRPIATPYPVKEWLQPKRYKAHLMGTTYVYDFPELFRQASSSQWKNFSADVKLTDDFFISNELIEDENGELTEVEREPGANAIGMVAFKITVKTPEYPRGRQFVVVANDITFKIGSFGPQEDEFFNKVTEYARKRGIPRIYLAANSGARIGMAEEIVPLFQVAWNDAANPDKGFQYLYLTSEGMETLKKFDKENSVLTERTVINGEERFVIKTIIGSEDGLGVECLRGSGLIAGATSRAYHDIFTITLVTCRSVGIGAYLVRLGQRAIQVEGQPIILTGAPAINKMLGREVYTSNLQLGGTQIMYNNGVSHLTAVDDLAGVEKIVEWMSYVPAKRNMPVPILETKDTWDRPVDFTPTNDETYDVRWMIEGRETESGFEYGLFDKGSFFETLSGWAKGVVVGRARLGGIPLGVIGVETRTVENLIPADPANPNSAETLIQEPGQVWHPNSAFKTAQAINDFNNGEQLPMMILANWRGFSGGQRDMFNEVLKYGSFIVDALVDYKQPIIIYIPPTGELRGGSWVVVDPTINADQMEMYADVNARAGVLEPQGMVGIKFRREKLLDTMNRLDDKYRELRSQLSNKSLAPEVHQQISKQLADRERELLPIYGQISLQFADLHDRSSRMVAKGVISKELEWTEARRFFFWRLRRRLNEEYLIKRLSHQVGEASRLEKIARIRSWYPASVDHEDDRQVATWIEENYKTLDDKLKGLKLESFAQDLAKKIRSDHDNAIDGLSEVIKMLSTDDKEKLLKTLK
Chain of human (hACC2) (O00763 whole entry): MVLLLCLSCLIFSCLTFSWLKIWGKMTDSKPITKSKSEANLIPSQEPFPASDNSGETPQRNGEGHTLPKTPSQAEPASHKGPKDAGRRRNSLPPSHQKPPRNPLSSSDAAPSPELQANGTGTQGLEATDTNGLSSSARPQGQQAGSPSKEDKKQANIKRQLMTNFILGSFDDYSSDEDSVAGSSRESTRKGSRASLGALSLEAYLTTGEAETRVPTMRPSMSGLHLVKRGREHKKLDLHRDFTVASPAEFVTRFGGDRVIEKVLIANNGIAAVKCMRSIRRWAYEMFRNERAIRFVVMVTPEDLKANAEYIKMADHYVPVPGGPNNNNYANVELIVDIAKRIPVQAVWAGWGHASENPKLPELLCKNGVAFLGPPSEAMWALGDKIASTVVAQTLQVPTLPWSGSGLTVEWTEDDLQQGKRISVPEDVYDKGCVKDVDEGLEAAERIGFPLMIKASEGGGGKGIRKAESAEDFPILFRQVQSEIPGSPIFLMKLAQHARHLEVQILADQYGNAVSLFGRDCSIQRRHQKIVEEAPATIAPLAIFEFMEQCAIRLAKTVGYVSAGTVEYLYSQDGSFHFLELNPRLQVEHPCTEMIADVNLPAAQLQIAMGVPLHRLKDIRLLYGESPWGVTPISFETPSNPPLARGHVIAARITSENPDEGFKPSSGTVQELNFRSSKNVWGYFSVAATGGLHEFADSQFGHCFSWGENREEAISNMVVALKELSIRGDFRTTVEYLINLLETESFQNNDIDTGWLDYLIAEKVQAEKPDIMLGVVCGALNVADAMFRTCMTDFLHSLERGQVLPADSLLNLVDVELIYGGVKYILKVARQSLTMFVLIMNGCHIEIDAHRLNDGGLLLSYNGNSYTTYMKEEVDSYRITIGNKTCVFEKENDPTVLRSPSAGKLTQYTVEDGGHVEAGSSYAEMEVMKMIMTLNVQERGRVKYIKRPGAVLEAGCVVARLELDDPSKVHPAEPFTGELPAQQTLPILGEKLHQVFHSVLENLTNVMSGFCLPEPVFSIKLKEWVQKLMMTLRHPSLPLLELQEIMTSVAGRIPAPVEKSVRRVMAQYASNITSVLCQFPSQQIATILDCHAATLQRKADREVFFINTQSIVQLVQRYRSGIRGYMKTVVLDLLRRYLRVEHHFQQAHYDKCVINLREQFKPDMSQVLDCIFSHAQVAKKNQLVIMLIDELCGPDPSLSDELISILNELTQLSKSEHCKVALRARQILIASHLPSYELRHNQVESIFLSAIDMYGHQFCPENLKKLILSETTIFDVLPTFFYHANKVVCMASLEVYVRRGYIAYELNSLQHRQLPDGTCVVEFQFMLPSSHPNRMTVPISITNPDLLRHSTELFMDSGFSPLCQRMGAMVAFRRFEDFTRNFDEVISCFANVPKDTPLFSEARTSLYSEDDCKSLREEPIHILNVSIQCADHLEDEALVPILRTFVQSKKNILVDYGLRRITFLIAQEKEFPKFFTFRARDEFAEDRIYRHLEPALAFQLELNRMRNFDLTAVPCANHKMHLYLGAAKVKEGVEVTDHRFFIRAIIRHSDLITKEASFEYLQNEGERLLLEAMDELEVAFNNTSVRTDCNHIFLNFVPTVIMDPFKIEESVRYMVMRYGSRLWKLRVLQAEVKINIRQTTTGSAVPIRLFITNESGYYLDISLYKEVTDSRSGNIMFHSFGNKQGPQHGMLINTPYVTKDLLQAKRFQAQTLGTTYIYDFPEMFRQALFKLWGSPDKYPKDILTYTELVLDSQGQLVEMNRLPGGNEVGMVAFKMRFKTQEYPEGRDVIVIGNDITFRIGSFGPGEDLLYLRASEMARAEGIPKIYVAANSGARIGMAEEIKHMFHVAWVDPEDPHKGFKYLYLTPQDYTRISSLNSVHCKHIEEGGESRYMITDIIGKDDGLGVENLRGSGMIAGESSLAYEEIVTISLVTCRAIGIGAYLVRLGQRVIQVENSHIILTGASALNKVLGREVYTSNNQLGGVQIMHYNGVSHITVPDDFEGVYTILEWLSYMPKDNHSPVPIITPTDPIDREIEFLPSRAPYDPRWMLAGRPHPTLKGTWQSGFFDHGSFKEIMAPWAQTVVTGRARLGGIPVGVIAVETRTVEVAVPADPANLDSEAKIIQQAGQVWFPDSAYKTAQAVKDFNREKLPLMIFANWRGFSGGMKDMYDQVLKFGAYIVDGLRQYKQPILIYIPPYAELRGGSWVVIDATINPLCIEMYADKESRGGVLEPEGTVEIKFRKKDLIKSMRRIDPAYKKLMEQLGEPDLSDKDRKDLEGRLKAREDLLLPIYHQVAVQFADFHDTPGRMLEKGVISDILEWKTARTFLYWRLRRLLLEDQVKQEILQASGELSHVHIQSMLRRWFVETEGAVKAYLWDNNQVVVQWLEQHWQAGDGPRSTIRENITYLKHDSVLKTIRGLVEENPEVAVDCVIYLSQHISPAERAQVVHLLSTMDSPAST

COc1ccc(F)cc1[C@H](Cn1c(=O)n([C@H](C)C(=O)NC(C)C)c(=O)c2c(C)c(-n3nccn3)sc21)OCC(C)(C)C#N [Compound I-210]
IC50 [1]: 1 to 5 nM
MIC [2, 14]: 1.01 to 2 µg/mL (≈ 1.65 to 3.27 µM)
MIC [3, 15]: 2.01 to 4 µg/mL (≈ 3.29 to 6.54 µM)
MIC [4, 16]: 1.01 to 2 µg/mL (≈ 1.65 to 3.27 µM)
IC90 [5, 17]: 0.4 µg/mL (≈ 0.654 µM)
IC90 [6, 18]: 0.4 µg/mL (≈ 0.654 µM)
IC90 [7, 19]: 0.4 µg/mL (≈ 0.654 µM)
IC90 [8, 20]: 0.08 µg/mL (≈ 0.131 µM)
IC90 [9, 21]: 0.4 µg/mL (≈ 0.654 µM)
IC90 [10, 22]: > 50 µg/mL
IC90 [11, 23]: 0.08 µg/mL (≈ 0.131 µM)
IC90 [12, 24]: 2 µg/mL (≈ 3.27 µM)
IC50 [13]: 0.3 to 1 nM

COc1ccc(F)cc1[C@H](Cn1c(=O)n([C@@H](C)C(=O)NC(C)C)c(=O)c2c(C)c(-n3nccn3)sc21)OCC(C)(C)C#N [Compound I-211]
IC50 [1]: 10 to 40 nM
MIC [2, 14]: 1.01 to 2 µg/mL (≈ 1.65 to 3.27 µM)
MIC [3, 15]: 2.01 to 4 µg/mL (≈ 3.29 to 6.54 µM)
MIC [4, 16]: 1.01 to 2 µg/mL (≈ 1.65 to 3.27 µM)
IC90 [5, 17]: 2 µg/mL (≈ 3.27 µM)
IC90 [6, 18]: > 50 µg/mL
IC90 [7, 19]: 10 µg/mL (≈ 16.3 µM)
IC90 [8, 20]: 2 µg/mL (≈ 3.27 µM)
IC90 [9, 21]: > 50 µg/mL
IC90 [10, 22]: > 50 µg/mL
IC90 [11, 23]: > 50 µg/mL
IC90 [12, 24]: > 50 µg/mL
IC50 [13]: 1 to 5 nM

COc1ccc(F)cc1[C@H](Cn1c(=O)n([C@H](C)C(N)=O)c(=O)c2c(C)c(-n3nccn3)sc21)OCC(C)(C)C#N [Compound I-212]
IC50 [1]: 1 to 5 nM
MIC [2, 14]: 0.25 to 1 µg/mL (≈ 0.439 to 1.76 µM)
MIC [3, 15]: > 4.01 µg/mL
MIC [4, 16]: 2.01 to 4 µg/mL (≈ 3.53 to 7.02 µM)
IC90 [5, 17]: 2 µg/mL (≈ 3.51 µM)
IC90 [6, 18]: 10 µg/mL (≈ 17.6 µM)
IC90 [7, 19]: 10 µg/mL (≈ 17.6 µM)
IC90 [8, 20]: 2 µg/mL (≈ 3.51 µM)
IC90 [9, 21]: 10 µg/mL (≈ 17.6 µM)
IC90 [10, 22]: > 50 µg/mL
IC90 [11, 23]: 2 µg/mL (≈ 3.51 µM)
IC90 [12, 24]: > 50 µg/mL
IC50 [13]: 1 to 5 nM

COc1ccc(F)cc1[C@H](Cn1c(=O)n([C@@H](C)C(N)=O)c(=O)c2c(C)c(-n3nccn3)sc21)OCC(C)(C)C#N [Compound I-213]
IC50 [1]: 5 to 10 nM
MIC [2, 14]: 0.25 to 1 µg/mL (≈ 0.439 to 1.76 µM)
MIC [3, 15]: > 4.01 µg/mL
MIC [4, 16]: 2.01 to 4 µg/mL (≈ 3.53 to 7.02 µM)
IC90 [5, 17]: > 50 µg/mL
IC90 [6, 18]: > 50 µg/mL
IC90 [7, 19]: > 50 µg/mL
IC90 [8, 20]: 10 µg/mL (≈ 17.6 µM)
IC90 [9, 21]: > 50 µg/mL
IC90 [10, 22]: > 50 µg/mL
IC90 [11, 23]: > 50 µg/mL
IC90 [12, 24]: > 50 µg/mL
IC50 [13]: 1 to 5 nM

COc1ccc(F)cc1[C@H](Cn1c(=O)n(C(C)(C)C(=O)NC(C)C)c(=O)c2c(C)c(-n3nccn3)sc21)O[C@H]1CC[C@@H](O)CC1 [Compound I-216]
IC50 [1]: 5 to 10 nM
MIC [2, 25]: 0.25 to 1 µg/mL (≈ 0.389 to 1.56 µM)
MIC [3, 26]: 0.06 to 0.249 µg/mL (≈ 0.0933 to 0.387 µM)
MIC [4, 27]: 0.25 to 1 µg/mL (≈ 0.389 to 1.56 µM)
IC90 [5, 28]: 0.4 µg/mL (≈ 0.622 µM)
IC90 [6, 29]: 2 µg/mL (≈ 3.11 µM)
IC90 [7, 30]: 2 µg/mL (≈ 3.11 µM)
IC90 [8]: 0.08 µg/mL (≈ 0.124 µM)
IC90 [9, 31]: 0.4 µg/mL (≈ 0.622 µM)
IC90 [10, 32]: > 50 µg/mL
IC90 [11, 33]: 0.08 µg/mL (≈ 0.124 µM)
IC90 [12, 34]: > 50 µg/mL
IC50 [13]: 0.3 to 1 nM

COc1ccccc1[C@H](Cn1c(=O)n(C(C)(C)C(=O)NC(C)C)c(=O)c2c(C)c(-n3nccn3)sc21)O[C@H]1CC[C@@H](O)CC1 [Compound I-217]
IC50 [1]: 5 to 10 nM
MIC [2, 25]: 0.25 to 1 µg/mL (≈ 0.4 to 1.6 µM)
MIC [3, 26]: 0.06 to 0.249 µg/mL (≈ 0.096 to 0.399 µM)
MIC [4, 27]: 0.25 to 1 µg/mL (≈ 0.4 to 1.6 µM)
IC90 [5, 28]: 0.4 µg/mL (≈ 0.64 µM)
IC90 [6, 29]: 2 µg/mL (≈ 3.2 µM)
IC90 [7, 30]: 2 µg/mL (≈ 3.2 µM)
IC90 [8]: 0.08 µg/mL (≈ 0.128 µM)
IC90 [9, 31]: 0.4 µg/mL (≈ 0.64 µM)
IC90 [10, 32]: > 50 µg/mL
IC90 [11, 33]: 0.08 µg/mL (≈ 0.128 µM)
IC90 [12, 34]: > 50 µg/mL
IC50 [13]: 0.3 to 1 nM

COc1ccc(F)cc1[C@H](Cn1c(=O)n(C(C)(C)C(=O)NC(C)C)c(=O)c2c(C)c(-n3nccn3)sc21)OCCC(=O)NO [Compound I-218]
IC50 [1]: 10 to 40 nM
MIC [2, 25]: 0.25 to 1 µg/mL (≈ 0.396 to 1.58 µM)
MIC [3, 26]: 0.25 to 1 µg/mL (≈ 0.396 to 1.58 µM)
MIC [4, 27]: 0.25 to 1 µg/mL (≈ 0.396 to 1.58 µM)
IC90 [5, 28]: 2 µg/mL (≈ 3.17 µM)
IC90 [6, 29]: 10 µg/mL (≈ 15.8 µM)
IC90 [7, 30]: 10 µg/mL (≈ 15.8 µM)
IC90 [8]: 2 µg/mL (≈ 3.17 µM)
IC90 [9, 31]: 2 µg/mL (≈ 3.17 µM)
IC90 [10, 32]: > 50 µg/mL
IC90 [11, 33]: 2 µg/mL (≈ 3.17 µM)
IC90 [12, 34]: > 50 µg/mL
IC50 [13]: 1 to 5 nM

— US10800791B2, “Triazole ACC inhibitors and uses thereof” (Gilead Apollo, LLC, priority 2015, dated 2020)
